# Key:
# HeLa cells = assay: Cell cycle analysis with HeLa cells; format: cell-based, human; settings: 18 hr
# Experimental: HeLa cells are harvested by trypsinization, washed, counted and distributed to wells of 12-well plates at 125,000 cells per well in 2 mL medium. Cells are cultured overnight. […] Cells are continued in culture for 18 hr after compound addition, then cells in each well are harvested (taking care to recover both adherent and non-adherent cells) and processed using the CycleTEST PLUS kit (Becton Dickinson Immunocytometry Systems, San Jose, Calif.). Flow cytometry is done with a FACSort instrument (Becton Dickinson).
# This procedure measures the percentages of cells in a population that are in the G1, S, and G2/M phases of the cell cycle. It utilizes staining of cell nuclei with propidium iodide and analysis by flow cytometry.
# MAP-rich tubulin = assay: Tubulin polymerization test with MAP-rich tubulin; format: biochemical, bovine; settings: 0.3 μM compound, 20 min, fold enhancement over control
# In short: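 Bovine brain MAP-rich tubulin (1.3 mg/mL) in PEM buffer pH 6.9 with 1 mM GTP, compounds at 0.3 μM final (0.3% DMSO), 24° for 60 min. Turbidity read at 340 nm each minute, baseline-subtracted; mean A340 at 20 min divided by solvent control gives fold enhancement.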
structure (smiles),measurement,setting,value
"CNCCCOc1cc(F)c(-c2c(Cl)nc3ncnn3c2N[C@@H](C)C(F)(F)F)c(F)c1.Cl [Example 2a, 5-Chloro-6-{2,6-difluoro-4-[3-(methylamino)propoxy]phenyl}-N-[(1S)-2,2,2-trifluoro-1-methylethyl][1,2,4]triazolo[1,5-a]pyrimidin-7-amine hydrogen chloride]",Percent in Cell Cycle Phase >4N,HeLa cells; 20 nM,2%
same,Percent in Cell Cycle Phase Apop,HeLa cells; 20 nM,28%
same,Percent in Cell Cycle Phase G1,HeLa cells; 20 nM,41%
same,Percent in Cell Cycle Phase G2/M,HeLa cells; 20 nM,16%
same,Percent in Cell Cycle Phase S,HeLa cells; 20 nM,14%
same,Percent in Cell Cycle Phase >4N,HeLa cells; 30 nM,2%
same,Percent in Cell Cycle Phase Apop,HeLa cells; 30 nM,62%
same,Percent in Cell Cycle Phase G1,HeLa cells; 30 nM,12%
same,Percent in Cell Cycle Phase G2/M,HeLa cells; 30 nM,16%
same,Percent in Cell Cycle Phase S,HeLa cells; 30 nM,10%
same,Percent in Cell Cycle Phase >4N,HeLa cells; 40 nM,2%
same,Percent in Cell Cycle Phase Apop,HeLa cells; 40 nM,44%
same,Percent in Cell Cycle Phase G1,HeLa cells; 40 nM,5%
same,Percent in Cell Cycle Phase G2/M,HeLa cells; 40 nM,39%
same,Percent in Cell Cycle Phase S,HeLa cells; 40 nM,9%
same,Percent in Cell Cycle Phase >4N,HeLa cells; 50 nM,4%
same,Percent in Cell Cycle Phase Apop,HeLa cells; 50 nM,25%
same,Percent in Cell Cycle Phase G1,HeLa cells; 50 nM,5%
same,Percent in Cell Cycle Phase G2/M,HeLa cells; 50 nM,58%
same,Percent in Cell Cycle Phase S,HeLa cells; 50 nM,9%
same,Percent in Cell Cycle Phase >4N,HeLa cells; 60 nM,4%
same,Percent in Cell Cycle Phase Apop,HeLa cells; 60 nM,24%
same,Percent in Cell Cycle Phase G1,HeLa cells; 60 nM,4%
same,Percent in Cell Cycle Phase G2/M,HeLa cells; 60 nM,58%
same,Percent in Cell Cycle Phase S,HeLa cells; 60 nM,9%
same,Percent in Cell Cycle Phase >4N,HeLa cells; 70 nM,4%
same,Percent in Cell Cycle Phase Apop,HeLa cells; 70 nM,22%
same,Percent in Cell Cycle Phase G1,HeLa cells; 70 nM,6%
same,Percent in Cell Cycle Phase G2/M,HeLa cells; 70 nM,57%
same,Percent in Cell Cycle Phase S,HeLa cells; 70 nM,11%
same,Percent in Cell Cycle Phase >4N,HeLa cells; 80 nM,4%
same,Percent in Cell Cycle Phase Apop,HeLa cells; 80 nM,26%
same,Percent in Cell Cycle Phase G1,HeLa cells; 80 nM,7%
same,Percent in Cell Cycle Phase G2/M,HeLa cells; 80 nM,52%
same,Percent in Cell Cycle Phase S,HeLa cells; 80 nM,11%
same,Percent in Cell Cycle Phase >4N,HeLa cells; 90 nM,4%
same,Percent in Cell Cycle Phase Apop,HeLa cells; 90 nM,30%
same,Percent in Cell Cycle Phase G1,HeLa cells; 90 nM,7%
same,Percent in Cell Cycle Phase G2/M,HeLa cells; 90 nM,46%
same,Percent in Cell Cycle Phase S,HeLa cells; 90 nM,13%
same,Percent in Cell Cycle Phase >4N,HeLa cells; 100 nM,4%
same,Percent in Cell Cycle Phase Apop,HeLa cells; 100 nM,34%
same,Percent in Cell Cycle Phase G1,HeLa cells; 100 nM,7%
same,Percent in Cell Cycle Phase G2/M,HeLa cells; 100 nM,41%
same,Percent in Cell Cycle Phase S,HeLa cells; 100 nM,15%
same,Percent in Cell Cycle Phase >4N,HeLa cells; 110 nM,4%
same,Percent in Cell Cycle Phase Apop,HeLa cells; 110 nM,37%
same,Percent in Cell Cycle Phase G1,HeLa cells; 110 nM,9%
same,Percent in Cell Cycle Phase G2/M,HeLa cells; 110 nM,37%
same,Percent in Cell Cycle Phase S,HeLa cells; 110 nM,14%
same,Percent in Cell Cycle Phase >4N,HeLa cells; 120 nM,4%
same,Percent in Cell Cycle Phase Apop,HeLa cells; 120 nM,39%
same,Percent in Cell Cycle Phase G1,HeLa cells; 120 nM,8%
same,Percent in Cell Cycle Phase G2/M,HeLa cells; 120 nM,36%
same,Percent in Cell Cycle Phase S,HeLa cells; 120 nM,15%
"C[C@H](Nc1c(-c2c(F)cc(OCCCN(C)C)cc2F)c(Br)nc2ncnn12)C(F)(F)F [Example 25, 5-Bromo-6-{4-[3-(dimethylamino)propoxy]-2,6-difluorophenyl}-N-[(1S)-2,2,2-trifluoro-1-methylethyl][1,2,4]triazolo[1,5-a]pyrimidin-7-amine]",A340 Compound/A340 Control,MAP-rich tubulin,7.2
"CC(=O)O[C@H]1C(=O)[C@@]2(C)[C@H]([C@H](OC(=O)c3ccccc3)[C@]3(O)C[C@H](OC(=O)[C@H](O)[C@@H](NC(=O)c4ccccc4)c4ccccc4)C(C)=C1C3(C)C)[C@]1(OC(C)=O)CO[C@@H]1C[C@@H]2O [Paclitaxel, reference compound]",A340 Compound/A340 Control,MAP-rich tubulin,8.5
"CNCCCOc1cc(F)c(-c2c(Cl)nc3ncnn3c2NCC(F)(F)F)c(F)c1.Cl [Example 3a, 5-Chloro-6-{2,6-difluoro-4-[3-(methylamino)propoxy]phenyl}-N-(2,2,2-trifluoroethyl)[1,2,4]triazolo[1,5-a]pyrimidin-7-amine hydrogen chloride Salt]",Percent in Cell Cycle Phase >4N,HeLa cells; 20 nM,1%
same,Percent in Cell Cycle Phase Apop,HeLa cells; 20 nM,29%
same,Percent in Cell Cycle Phase G1,HeLa cells; 20 nM,42%
same,Percent in Cell Cycle Phase G2/M,HeLa cells; 20 nM,16%
same,Percent in Cell Cycle Phase S,HeLa cells; 20 nM,12%
same,Percent in Cell Cycle Phase >4N,HeLa cells; 30 nM,2%
same,Percent in Cell Cycle Phase Apop,HeLa cells; 30 nM,55%
same,Percent in Cell Cycle Phase G1,HeLa cells; 30 nM,11%
same,Percent in Cell Cycle Phase G2/M,HeLa cells; 30 nM,21%
same,Percent in Cell Cycle Phase S,HeLa cells; 30 nM,11%
same,Percent in Cell Cycle Phase >4N,HeLa cells; 40 nM,3%
same,Percent in Cell Cycle Phase Apop,HeLa cells; 40 nM,50%
same,Percent in Cell Cycle Phase G1,HeLa cells; 40 nM,6%
same,Percent in Cell Cycle Phase G2/M,HeLa cells; 40 nM,31%
same,Percent in Cell Cycle Phase S,HeLa cells; 40 nM,10%
same,Percent in Cell Cycle Phase >4N,HeLa cells; 50 nM,3%
same,Percent in Cell Cycle Phase Apop,HeLa cells; 50 nM,32%
same,Percent in Cell Cycle Phase G1,HeLa cells; 50 nM,5%
same,Percent in Cell Cycle Phase G2/M,HeLa cells; 50 nM,52%
same,Percent in Cell Cycle Phase S,HeLa cells; 50 nM,8%
same,Percent in Cell Cycle Phase >4N,HeLa cells; 60 nM,4%
same,Percent in Cell Cycle Phase Apop,HeLa cells; 60 nM,25%
same,Percent in Cell Cycle Phase G1,HeLa cells; 60 nM,4%
same,Percent in Cell Cycle Phase G2/M,HeLa cells; 60 nM,58%
same,Percent in Cell Cycle Phase S,HeLa cells; 60 nM,9%
same,Percent in Cell Cycle Phase >4N,HeLa cells; 70 nM,4%
same,Percent in Cell Cycle Phase Apop,HeLa cells; 70 nM,21%
same,Percent in Cell Cycle Phase G1,HeLa cells; 70 nM,5%
same,Percent in Cell Cycle Phase G2/M,HeLa cells; 70 nM,61%
same,Percent in Cell Cycle Phase S,HeLa cells; 70 nM,9%
same,Percent in Cell Cycle Phase >4N,HeLa cells; 80 nM,5%
same,Percent in Cell Cycle Phase Apop,HeLa cells; 80 nM,24%
same,Percent in Cell Cycle Phase G1,HeLa cells; 80 nM,5%
same,Percent in Cell Cycle Phase G2/M,HeLa cells; 80 nM,57%
same,Percent in Cell Cycle Phase S,HeLa cells; 80 nM,11%
same,Percent in Cell Cycle Phase >4N,HeLa cells; 90 nM,4%
same,Percent in Cell Cycle Phase Apop,HeLa cells; 90 nM,23%
same,Percent in Cell Cycle Phase G1,HeLa cells; 90 nM,5%
same,Percent in Cell Cycle Phase G2/M,HeLa cells; 90 nM,60%
same,Percent in Cell Cycle Phase S,HeLa cells; 90 nM,8%
same,Percent in Cell Cycle Phase >4N,HeLa cells; 100 nM,5%
same,Percent in Cell Cycle Phase Apop,HeLa cells; 100 nM,25%
same,Percent in Cell Cycle Phase G1,HeLa cells; 100 nM,5%
same,Percent in Cell Cycle Phase G2/M,HeLa cells; 100 nM,55%
same,Percent in Cell Cycle Phase S,HeLa cells; 100 nM,10%
same,Percent in Cell Cycle Phase >4N,HeLa cells; 110 nM,5%
same,Percent in Cell Cycle Phase Apop,HeLa cells; 110 nM,26%
same,Percent in Cell Cycle Phase G1,HeLa cells; 110 nM,6%
same,Percent in Cell Cycle Phase G2/M,HeLa cells; 110 nM,54%
same,Percent in Cell Cycle Phase S,HeLa cells; 110 nM,10%
same,Percent in Cell Cycle Phase >4N,HeLa cells; 120 nM,5%
same,Percent in Cell Cycle Phase Apop,HeLa cells; 120 nM,30%
same,Percent in Cell Cycle Phase G1,HeLa cells; 120 nM,6%
same,Percent in Cell Cycle Phase G2/M,HeLa cells; 120 nM,48%
same,Percent in Cell Cycle Phase S,HeLa cells; 120 nM,12%
